Measured values as given in article PMC12195250, “Synthesis, Biological Evaluation, Molecular Dynamics, and QM-MM Calculation of Spiro-Acridine Derivatives Against Leishmaniasis” (Microorganisms, 2025).

Key:
Assay type in all cases: cell-based
[1] = test system: human red blood peripheral cells (O+); assay: Hemocompatibility (hemolysis) in red blood cells; conditions: 1 h at 37 °C
Protocol: The hemocompatibility of the spiro-acridine derivatives was determined using human red blood peripheral cells (O+) from healthy adults. The erythrocytes were diluted in phosphate-buffered saline (PBS) to a concentration of 5% in an 80 µL suspension and subsequently incubated with 20 µL of different concentrations of spiro-acridine derivatives and Amphotericin B® (400, 200, 100, 50, 25, 12,5, 6,25 and 3,12 μg/mL). Afterward, the samples were incubated for 1 h at 37 °C in a B.O.D incubator, and the reaction was stopped by adding 200 μL of PBS (1.5 mM KH2PO4, 8.1 mM Na2HPO4, 136.9 mM NaCl, and 2.6 mM KCl, pH 7.2). The samples were centrifuged at 2000 rpm for 10 min, at room temperature. The supernatants were collected and subjected to spectrophotometry using a spectrophotometer (model Biosystems ELx800, Curitiba, PR, Brazil) at 540 nm. The hemolysis percentage was determined as [(Abssam − Abscon)/(Abstot − Abscon) × 100], where Abssam refers to the absorbance of the sample, Abscon to the absorbance of the blank control (without compounds), and Abstot to the absorbance of total hemolysis (obtained by replacing the sample solution with an equal volume of Milli-Q water). The results were expressed as average hemolytic concentration (HC50), considering the positive control as 100% hemolysis.

[2] = test system: J774A.1 macrophages; assay: Cytotoxic effect in J774 macrophage cultures, MTT; conditions: read-out: CC50 (50% cytotoxic concentration in J774 macrophage)
Protocol: J774A.1 macrophages (ATCC TIB-67) were kept cryopreserved in a Falcon tube containing 5 mL of DMEM (Dulbecco’s modified Eagle medium) culture medium (Gibco®), supplemented with 10% inactivated fetal bovine serum, 1% non-essential amino acids, and 1% gentamicin sulfate. The tube was centrifuged at 200 rpm for 10 min. Afterward, the supernatant was discarded, and the cells were resuspended in the culture medium and transferred to a culture bottle kept in an incubator at 37 °C with 5% CO2. The assays were carried out in triplicate using a 96-well plate to evaluate the cytotoxic effect of the selected spiro-acridine compounds on J774 macrophage cultures. The compounds were diluted and seeded at predetermined concentrations (32, 16, 8, 4, and 2 μg/mL), parallel to the distribution of 1.0 × 10^5 J774 macrophages per well. The plate was incubated for two hours in a 5% CO2 incubator at 37 °C. Only the cells were incubated in the negative control without the tested molecules. In contrast, the positive control was performed by incubating the macrophages with the commercial drug Amphotericin B®. Later, 10 μL of the MTT reagent was added per well, and the cultures were re-incubated for 4 h. Finally, 50 μL of DMSO was added to each well, and the absorbance was read on a SpectraMAX GeminiXS plate spectrophotometer (Molecular Devices LLC, San Jose, CA, USA) at a wavelength of 570 nm. […]

[3] = test system: J774 macrophages infected with L. amazonensis amastigotes; assay: Cytokine profile by cytometry bead assay (CBA); conditions: 24 h; for IL-6 expression: 8 µg/mL, versus untreated infected macrophages; for modulation of the IL-2 response: basal or infected macrophages, 2, 4 and 8 µg/mL; for IL-4 expression / IL-10 expression / TNF-α expression: infected macrophages, 2, 4 and 8 µg/mL; for TNF-α expression: versus untreated infected
Protocol: The assessment of the influence of spiro-acridine derivatives on the cytokine profile of immunological responses was carried out by the quantification of the cytokines IL-2, IL-4, IL-6, IL-10, IL-17A, INF-γ, and TNF-α in supernatants of cell cultures of J774 macrophages infected with L. amazonensis amastigotes through cytometry bead assay (CBA), according to the manufacturer’s instructions (BD Bioscience, Franklin Lakes, NJ, USA). The cells were adhered to a plate, infected with amastigotes of L. amazonensis, and treated with the spiro-acridines under analysis in the following concentrations: 2, 4, and 8 μg/mL. After the 24-h treatment period, 50 μL of the supernatant from each well was transferred to a conical tube, while 50 μL of the capture bead mixture and 50 μL of the detection reagent were added. The samples were incubated for 2 h at room temperature and protected from light. After incubation, 500 μL of washing buffer was added to each tube, followed by centrifugation for 5 min. The supernatant was discarded, and 300 μL of washing buffer was added. A calibration curve containing the following concentrations of each cytokine was added to the experiment: 0, 20, 40, 80, 156, 312.5, 625, 1250, 2500, and 5000 pg/mL. Uninfected and untreated macrophages were used as the negative control, while the untreated macrophages infected with L. amazonensis were used as the positive control. The fluorescence intensity in each sample was captured on the BD LRS II FORTESSA flow cytometer using the DIVA program version 7 (BD Bioscience), and the fluorescence data was processed using the FCAP array program version 3 (BD Bioscience). The experiments were performed in triplicate.

N#CC1=CC2(c3ccccc3Nc3ccccc32)N(c2ccc(Cl)cc2)C1=O [ACMD-03, (E)1′-(4-chlorophenyl)-5′-oxo-1′, 5′-dihydro-10H-spiro{acridine-9,2′-pyrrole]-4′-carbonitrile]
HC50 (concentration capable of promoting 50% hemolysis) [1]: >400 µM | CC50 [2]: 27.2 µM | IL-6 expression [3]: significant decrease in IL-6 expression | modulation of the IL-2 response [3]: did not demonstrate a modulation of the IL-2 response | IL-4 expression [3]: Neither of the two molecules significantly influenced IL-4 expression | IL-10 expression [3]: significantly increased the expression of IL-10 at concentrations of 4 and 8 µg/mL | TNF-α expression [3]: significant reduction in TNF-α expression | IL-17A level (Th17 response) ([3]; versus basal and parasite-infected macrophages): significant increase in this interleukin at a concentration of 4 µg/mL

COc1ccc(/C=N/N2C(=O)C(C#N)=CC23c2ccccc2Nc2ccccc23)cc1 [AMTAC-02, (E)-1′-((4-methoxybenzylidene)amino)-5′-oxo-1′,5′-dihydro-10H-spiro[acridine-9,2′-pyrrole]-4′-carbonitrile]
HC50 (concentration capable of promoting 50% hemolysis) [1]: >400 µM | IL-6 expression [3]: significant decrease in IL-6 expression | modulation of the IL-2 response [3]: did not demonstrate a modulation of the IL-2 response | IL-4 expression [3]: Neither of the two molecules significantly influenced IL-4 expression | IL-10 expression [3]: no significant increase in IL-10 expression | TNF-α expression [3]: significant reduction in TNF-α expression
